Data from patent publication US20230125249A1 (FIRMENICH SA, priority 2017, published 2023).
Where two headings read alike, the source gives them in different places.

Experiments:
[1] = target: T1, OR5AN1 olfactory receptor (Homo sapiens, UniProt Q8NGI8); assay: MUSCENONE®/musk dose-response on OR5AN1 in presence and absence of putative modulator (EC50 shift, span); format: cell-based; conditions: FIG. 6; MUSCENONE® dose response in the presence of 250 μM compound
T1 construct: expressed in transfected cells
T1 sequence (Q8NGI8 1-311): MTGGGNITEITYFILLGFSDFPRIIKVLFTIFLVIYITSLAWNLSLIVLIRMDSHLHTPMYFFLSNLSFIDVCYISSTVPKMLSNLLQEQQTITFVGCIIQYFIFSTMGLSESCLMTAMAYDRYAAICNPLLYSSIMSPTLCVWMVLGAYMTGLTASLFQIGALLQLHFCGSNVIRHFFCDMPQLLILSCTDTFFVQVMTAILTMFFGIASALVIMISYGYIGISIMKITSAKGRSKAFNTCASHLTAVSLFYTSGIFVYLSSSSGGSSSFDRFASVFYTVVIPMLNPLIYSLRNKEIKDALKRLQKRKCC

[2] = target: T1, OR5AN1 olfactory receptor; assay: Single point binary mixture screen (MUSCENONE® + test compound) on a cell line expressing OR5AN1; format: cell-based; conditions: MUSCENONE® 10 μM + test compound 500 μM, compared to MUSCENONE® alone
Description: 481 binary mixtures were created by mixing a MUSCENONE® stock solution with a stock solution of each test compound to a final concentration 10 and 500 μM, respectively. Stock solutions were made of compounds dissolved in pure DMSO. Each mixture was presented to a cell line expressing the OR5AN1 olfactory receptor. The final concentration of DMSO in each binary mixture was 0.17%, and had no visible effect on the cells
The resulting activation was then measured and compared to MUSCENONE® alone (defining the baseline of the enhancement assay). The quality of the HTS process was determined and the window variability and signal reliability were assessed by calculating the Z′ value of each plate. Twenty hits were obtained, five of which were macrocyclic ketone and nitromusk OR5AN1 olfactory receptor agonists (hit n° 1, 2, 3, 5 and 9). These OR5AN1 olfactory receptor agonists further confirmed that the dynamic range of the assay window was sufficient (as the responses recorded were well above baseline) and thus likely sensitive enough to detect even low levels of putative enhancement.

[3] = target: T1, OR5AN1 olfactory receptor; assay: Allosteric EC50 shift analysis: MUSCENONE® dose response with serial concentrations of enhancer; format: cell-based; conditions: same method as for TDA
Description: The level of enhancement of the OR5AN1 olfactory receptor activation was evaluated at distinct concentrations of the enhancer. […] The curves were obtained by applying the simplified Allosteric EC50 shift effect equation (available in Prism5, v. 5.02) derived from the ternary complex interaction model.

[4] = Odor detection threshold (ODT) forced-choice triangle test with background odor; format: in vivo, human
Description: Sensitivity of human individuals to MUSCENONE® was evaluated by performing an odor detection threshold (ODT) test. The ODT test consisted of identifying the concentration for which 50% of the panelists are able to determine which of three containers contains the target compound Muscenone® in a forced-choice triangle tests. Two tests were performed to calculate the ODT in mixtures containing Muscenone® plus a perceivable background odor of chemically similar molecules a) the enhancer tridecylenic aldehyde and b) the non-enhancing volatile compound, nonanal.
27 panelists were given a series of triangle tests with increasing concentration of MUSCENONE® in the presence of nonanal at a concentration of 0.1%. Within each triangle test, the three samples contained nonanal at 0.1% and one sample also contained MUSCENONE®. In each triangle test, the panelists were asked to identify the one sample that was different from the other two samples. The ODT was calculated by fitting a non-linear regression model onto the data and calculating the MUSCENONE® concentration at which the proportion of correct responses was equal to ⅔ (the midpoint between chance rate ⅓ and all correct answers 1). […]

[5] = test system: OR5AN1 allele 4; assay: Cell based assay of hypofunctional OR5AN1 allele 4 with and without enhancer; parameters: species or system human
[6] = target: T1, OR5AN1 olfactory receptor; assay: Response of the OR5AN1 olfactory receptor to musk compounds (HTRF); format: cell-based
[7] = test system: OR5AN1 allele 3; assay: Cell based assay of hypofunctional OR5AN1 allele 3 with and without enhancer; parameters: species or system human
[8] = target: T1, OR5AN1 olfactory receptor; assay: MUSCENONE®/musk dose-response on OR5AN1 in presence and absence of putative modulator (EC50 shift, span); format: cell-based; conditions: MUSCENONE® dose response in the presence of 250 μM compound
Description: Next, two parallel dose-response experiments to confirm the true enhancement properties of the potential candidates were performed. First, a dose-response of each individual candidate was performed to determine if it was an agonist by itself.
The resulting enhancement was quantified by means of EC50-fold shift (potency increase) and the efficacy span ratio (efficacy increase).
The EC50-fold shift was obtained by dividing the EC50 of MUSCENONE® +compound by the reference EC50 MUSCENONE® alone. The span ratio was obtained by dividing the span of MUSCENONE®+compound by the reference span of MUSCENONE® alone.

CC1=CCCC2(CCCCC2)C1/C=C/C=O (racemic) [(+−)-(2E)-3-(2-methylspiro [5.5]undec-2-en-1-yl) acrylaldehyde]
Inhibition of the activity of the OR5AN1 olfactory receptor [1]: inhibit the activity

CC(C)=CCCC(C)C/C=C/C=O (racemic) [Compound 5, (+−)-(2E)-5,9-dimethyl-2,8-decadienal]
Hit Type [2]: Agonist

CC12C3CC(CC31)[C@]2(C)C/C=C/C=O (single isomer, unassigned; (+))
Inhibition of the activity of the OR5AN1 olfactory receptor [1]: inhibit the activity

CC(C)c1cccc(C(C)CC=O)c1 (stereo not drawn) [3-(3-propan-2-ylphenyl)butanal]
Inhibition of the activity of the OR5AN1 olfactory receptor [1]: inhibit the activity

O=CCCc1ccccc1 [3-phenylpropanal]
Inhibition of the activity of the OR5AN1 olfactory receptor [1]: inhibit the activity

CC/C=C\CC/C=C/CO [(E)-2-(Z)-6-nonadien-1-ol]
Inhibition of the activity of the OR5AN1 olfactory receptor [1]: inhibit the activity

CCCCCCCCC/C=C/C(=O)O [(E)-2-dodecenoic acid]
Inhibition of the activity of the OR5AN1 olfactory receptor [1]: inhibit the activity

CCC/C=C/C=O [(E)-2-hexenal]
Inhibition of the activity of the OR5AN1 olfactory receptor [1]: inhibit the activity

CCCCCCCCCC/C=C/C(=O)O [(E)-2-tridecenoic acid]
Inhibition of the activity of the OR5AN1 olfactory receptor [1]: inhibit the activity

CCCCCCCCCC/C=C/CO [(E)-2-tridecenol]
Inhibition of the activity of the OR5AN1 olfactory receptor [1]: inhibit the activity

CCCCCCCC/C=C/C(=O)O [(E)-2-undecenoic acid]
Inhibition of the activity of the OR5AN1 olfactory receptor [1]: inhibit the activity

COc1ccccc1/C=C/C=O [(E)-3-(2-methoxyphenyl)prop-2-enal]
Inhibition of the activity of the OR5AN1 olfactory receptor [1]: inhibit the activity

CCCCC/C=C/CCC=O [(E)-dec-4-enal]
Inhibition of the activity of the OR5AN1 olfactory receptor [1]: inhibit the activity

CC/C=C\CCCCCO [(Z)-6-nonen-1-ol]
Inhibition of the activity of the OR5AN1 olfactory receptor [1]: inhibit the activity

CCCCCCCC=CC=O [Compound 2-decenal, 2-decenal]
Allosteric modulation properties [3]: allosteric modulation properties similar to TDA

CCCCCC/C=C/C=O [Compound 6]
Hit Type [2]: Enhancement

CCCCCCCCCCC/C=C/C=O [Compound 7, (E)-2-tetradecenal]
Hit Type [2]: Agonist

CCCCCCC/C=C/C=O [Compound 11]
Hit Type [2]: Enhancement

CCC/C=C/C=O [Compound 12]
Hit Type [2]: Enhancement

COC(=O)c1ccccc1OC [Compound 16]
Hit Type [2]: Enhancement

CC(=O)c1ccccc1N [Compound 20]
Hit Type [2]: Enhancement

CC1CC=CCCCCCCCCCC(=O)C1 (stereo not drawn) [MUSCENONE®]
ODT (odor detection threshold) ([4]; in the presence of nonanal at 0.1%, 27 panelists): 0.93%
ODT (odor detection threshold) ([4]; in the presence of tridecylenic aldehyde at 0.1%, 28 panelists): 0.09%
Activity (span) ([5]; allele 4, absence of enhancer): 2328 relative fluorescent HTRF units
EC50 ([5]; allele 4, absence of enhancer): 10.1 µM
EC50 ([5]; allele 4, in the presence of 250 μM tridecylenic aldehyde): 1.6 µM
Activity (span) ([5]; allele 4, in the presence of tridecylenic aldehyde): 5026 relative fluorescent HTRF units
Activation of the OR5AN1 olfactory receptor ([6]; FIG. 1a): specifically activated
Span (HTRF ratio) ([6]; efficacy, maximum span): 3629 HTRF ratio
Activity (span) ([7]; allele 3, absence of enhancer): 2311 relative fluorescent HTRF units
EC50 ([7]; allele 3, absence of enhancer): 9 µM
EC50 ([7]; allele 3, in the presence of 250 μM tridecylenic aldehyde): 1.5 µM
Activity (span) ([7]; allele 3, in the presence of tridecylenic aldehyde): 4663 relative fluorescent HTRF units

C[C@@H]1CCCCCCCCCCCCC(=O)C1 [Muscone]
Activation of the OR5AN1 olfactory receptor ([6]; FIG. 1a): specifically activated
Span (HTRF ratio) ([6]; efficacy, maximum span): 2979 HTRF ratio

CC(=O)c1c(C)c([N+](=O)[O-])c(C(C)(C)C)c([N+](=O)[O-])c1C [Musk ketone]
Activation of the OR5AN1 olfactory receptor ([6]; FIG. 1a): specifically activated
Span (HTRF ratio) ([6]; efficacy, maximum span): 4312 HTRF ratio

Cc1c([N+](=O)[O-])c(C)c([N+](=O)[O-])c(C(C)(C)C)c1[N+](=O)[O-] [Musk xylol]
Activation of the OR5AN1 olfactory receptor [6]: specifically activated
Span (HTRF ratio) [6]: 4217 HTRF ratio

CC/C(=C\CC1CC=C(C)C1(C)C)CO (stereo not drawn) [bacdanol]
Inhibition of the activity of the OR5AN1 olfactory receptor [1]: inhibit the activity

SCc1ccco1 [furfuryl mercaptan]
Inhibition of the activity of the OR5AN1 olfactory receptor [1]: inhibit the activity

CCCCCCCCC=O [nonanal, reference compound]
OR5AN1 Musk response enhancement [8]: non-enhancing

CCCCCC/C=C/C=O [nonylenic aldehyde]
Allosteric modulation properties [3]: allosteric modulation properties similar to TDA

CCCCCCCC=O [octanal]
Inhibition of the activity of the OR5AN1 olfactory receptor [1]: inhibit the activity

CCCCCOC(=O)CCCC [pentyl valerate]
Inhibition of the activity of the OR5AN1 olfactory receptor [1]: inhibit the activity

CC1C2CC(CC2C2CCCC(O)C2)C1(C)C (stereo not drawn) [sandenol]
Inhibition of the activity of the OR5AN1 olfactory receptor [1]: inhibit the activity

C/C(C=O)=C\CCc1ccc(C(C)(C)C)cc1 [trans-5-(4-tert-butylphenyl)-2-methylpent-2-enal]
Inhibition of the activity of the OR5AN1 olfactory receptor [1]: inhibit the activity

C=CCCCCCCCCC(=O)O [undecenoic acid]
OR5AN1 Musk response enhancement [8]: absence of enhancement

(2E)-7,8-dimethyl-2,7-nonadienal [Compound 1]
Hit Type [2]: Agonist

(2E)-7-methyl-2,6-octadienal [Compound 3]
Hit Type [2]: agonists

Trans-2,6,7-dimethyl-2,6-octadienal [Compound 9]
Hit Type [2]: agonists
